From publication PMC4933954, “Navigation in bile acid chemical space: discovery of novel FXR and GPBAR1 ligands” (Scientific Reports, 2016)
Values joined by “and” are separate entries in the source; they are usually repeats but may differ in a detail not shown here. Equal values may be shown once.

Experiments:
[1] = target: T1, GST-fusion FXR-LBD / SRC-1 peptide (Homo sapiens, UniProt Q96RI1); assay: Alpha screen coactivator recruitment assay, direct interaction of FXR with SRC-1; format: biochemical; settings: ligands at 2 μM, effect of 6-ECDCA (3) settled as 100%
T1 construct: 10 nM of purified GST-tagged FXR-LBD protein
T1 sequence (Q96RI1 262-486 limits assumed): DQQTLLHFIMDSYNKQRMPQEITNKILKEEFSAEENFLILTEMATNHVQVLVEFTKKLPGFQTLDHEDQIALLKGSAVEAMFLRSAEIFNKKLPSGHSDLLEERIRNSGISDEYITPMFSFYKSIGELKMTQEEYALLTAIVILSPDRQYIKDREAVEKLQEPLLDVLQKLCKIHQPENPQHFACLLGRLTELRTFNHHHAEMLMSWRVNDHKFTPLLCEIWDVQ
T1 sequence (Q15788 676-700 partner limits assumed): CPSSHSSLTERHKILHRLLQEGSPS
Procedure: CDCA (1) and 6-ECDCA (3) were used as positive controls at 2 μM concentration and the effect of 6-ECDCA (3) was settled as 100%. […] Results are expressed as percentage of the effect of 3 arbitrarily settled as 100%. NT is referred to the experiment in absence of ligand. […] (B,C) Real-time PCR analysis of mRNA expression on FXR target genes BSEP (B), and OSTα (C) in HepG2 cells primed with 10 μM of compound 19. CDCA (1) was used as a positive control at 10 μM. (D) Real-time PCR analysis of mRNA expression of GPBAR1 target gene Pro-glucagon in GLUTAg cells stimulated with 10 μM of compounds 7 and 19, and TLCA (2) used as a positive control at 10 μM. Values are normalized to GAPDH and are expressed relative to those of not treated cells (NT) which are arbitrarily settled to 1. The relative mRNA expression is expressed as 2(-ΔΔCt). Anti-GST-coated acceptor beads were used to capture the GST-fusion FXR-LBD whereas the biotinylated-SRC-1 peptide was captured by the streptavidin donor beads. Upon illumination at 680 nm, chemical energy is transferred from donor to acceptor beads across the complex streptavidin-Donor/Src-1-Biotin/[…]-LBD/Anti-GST-Acceptor and a signal is produced. The assay was performed in white, low-volume, 384-well Optiplates (PerkinElmer) using a final volume of 25 μL containing final concentrations of 10 nM of purified GST-tagged FXR-LBD protein, 30 nM biotinylated Src-1 peptide, 20 μg/mL anti-GST acceptor beads acceptor beads and 10 μg/mL of streptavidin donor bead (PerkinElmer). The assay buffer contained 50 mM Tris (pH 7.4), 50 mM KCl, 0.1% BSA, and 1 mM DTT. The stimulation times with 1 μL of tested compound (dissolved in 50% DMSO/H2O) were fixed to 30 min at room temperature. The concentration of DMSO in each well was maintained at a final concentration of […]. After the addition of the detection mix (acceptor and donor beads) the plates were incubated in the dark for 4 h at room temperature and then were read in Envision microplate analyzer (PerkinElmer).

[2] = tested on: GPBAR1 target gene Pro-glucagon in GLUTAg cells; assay: Real-time PCR of GPBAR1 target gene Pro-glucagon in GLUTAg cells; format: cell-based, mouse; settings: 10 μM, relative to not treated cells
Procedure: (§1) Figure 10 (A) Coactivator recruitment assay measuring a direct interaction of FXR with SRC-1; ligands at 2 μM. Results are expressed as percentage of the effect of 3 arbitrarily settled as 100%. NT is referred to the experiment in absence of ligand. […] (B,C) Real-time PCR analysis of mRNA expression on FXR target genes BSEP (B), and OSTα (C) in HepG2 cells primed with 10 μM of compound 19. CDCA (1) was used as a positive control at 10 μM. (D) Real-time PCR analysis of mRNA expression of GPBAR1 target gene Pro-glucagon in GLUTAg cells stimulated with 10 μM of compounds 7 and 19, and TLCA (2) used as a positive control at 10 μM. Values are normalized to GAPDH and are expressed relative to those of not treated cells (NT) which are arbitrarily settled to 1. The relative mRNA expression is expressed as 2(−ΔΔCt).
(§2) Total RNA was isolated from HepG2 or GLUTAg cells using the TRIzol reagent according to the manufacturer’s specifications (Invitrogen). One microgram of purified RNA was treated with DNase-I and reverse transcribed with Superscript II (Invitrogen). For Real Time PCR, 10 ng template was dissolved in 25 μL containing 200 nmol/L of each primer and 12.5 μL of 2 × SYBR FAST Universal ready mix (Invitrogen). […] The relative mRNA expression was calculated and expressed as 2-(ΔΔCt). […]

human GPBAR1 = target: T2, human GPBAR1 (Homo sapiens, UniProt Q8TDU6); assay: GPBAR1 transactivation (cAMP responsive element luciferase reporter) in transfected HEK-293T cells; format: cell-based; settings: for EC50: HEK-293T cells transfected with GPBAR1, concentration-response, mean ± standard error
T2 construct: expressed in transfected cells; host or cells: HEK-293T
T2 sequence (Q8TDU6 1-330): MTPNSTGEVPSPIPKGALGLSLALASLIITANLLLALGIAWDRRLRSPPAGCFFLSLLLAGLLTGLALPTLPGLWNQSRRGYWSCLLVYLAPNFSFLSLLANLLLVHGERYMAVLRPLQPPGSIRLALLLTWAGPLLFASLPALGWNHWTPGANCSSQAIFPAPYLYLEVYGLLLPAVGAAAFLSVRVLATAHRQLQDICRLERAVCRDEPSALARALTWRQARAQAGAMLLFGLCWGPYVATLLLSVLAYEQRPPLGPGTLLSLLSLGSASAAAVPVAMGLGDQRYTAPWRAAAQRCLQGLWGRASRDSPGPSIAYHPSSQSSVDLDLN
Excerpt: Luciferase activities were normalized with Renilla activities.

FXR [3] = target: T3, FXR (Homo sapiens, UniProt Q96RI1); assay: FXR transactivation luciferase reporter assay in transfected HepG2 cells; settings: HepG2 cells transfected with FXR; for EC50: EC50 FXR transactivation, 100 nM to 25 μM, mean ± standard error
T3 sequence (Q96RI1 1-486): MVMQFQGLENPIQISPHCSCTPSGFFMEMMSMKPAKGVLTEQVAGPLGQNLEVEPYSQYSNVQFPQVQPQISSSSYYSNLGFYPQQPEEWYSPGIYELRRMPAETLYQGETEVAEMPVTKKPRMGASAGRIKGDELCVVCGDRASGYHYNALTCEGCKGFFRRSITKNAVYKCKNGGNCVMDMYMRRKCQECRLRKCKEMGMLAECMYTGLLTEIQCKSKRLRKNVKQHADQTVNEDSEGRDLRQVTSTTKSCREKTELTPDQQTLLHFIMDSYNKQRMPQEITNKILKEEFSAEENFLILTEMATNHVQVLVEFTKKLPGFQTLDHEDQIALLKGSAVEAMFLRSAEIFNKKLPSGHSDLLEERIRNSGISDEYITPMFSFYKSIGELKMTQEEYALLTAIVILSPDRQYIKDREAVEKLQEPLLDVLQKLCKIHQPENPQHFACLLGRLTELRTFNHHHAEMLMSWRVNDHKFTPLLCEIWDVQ
T3 sequence (P19793 1-462 partner): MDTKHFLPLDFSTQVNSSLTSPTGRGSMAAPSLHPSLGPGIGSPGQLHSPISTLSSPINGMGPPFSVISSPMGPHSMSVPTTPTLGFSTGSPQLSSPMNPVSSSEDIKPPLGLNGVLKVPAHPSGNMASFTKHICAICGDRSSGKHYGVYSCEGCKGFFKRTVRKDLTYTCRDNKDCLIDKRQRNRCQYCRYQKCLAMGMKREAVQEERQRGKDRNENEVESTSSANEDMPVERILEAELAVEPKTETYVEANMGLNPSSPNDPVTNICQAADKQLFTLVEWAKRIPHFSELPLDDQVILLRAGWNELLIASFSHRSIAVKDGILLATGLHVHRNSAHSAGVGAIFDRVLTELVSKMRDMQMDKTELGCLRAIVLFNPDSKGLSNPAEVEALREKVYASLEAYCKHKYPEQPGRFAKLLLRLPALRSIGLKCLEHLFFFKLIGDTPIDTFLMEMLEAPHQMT
Procedure: (A) HepG2 cells were transfected with pSG5-FXR, pSG5-RXR, pCMV-βgal, and p(hsp27)TKLUC vectors. […] CDCA (1, 10 μM) and 6-ECDCA (3, 1 μM) were used as a positive control. […] Cells were stimulated with 7–19 (10 μM). […] In both panels, results are expressed as mean ± standard error. *p < 0.05 versus not treated cells (NT).
HepG2 cells were transfected with FXR as described above and used in a luciferase reporter assay. […] Results are expressed as mean ± standard error.
For FXR and GP BAR1 mediated transactivations, HepG2 cells and HEK293T cells were transfected as described previously[25]. […] After treatments, 20 μL of cellular lysates were read using Dual Luciferase Reporter Assay System (Promega Italia s.r.l., Milan, Italy) according manufacturer specifications using the Glomax 20/20 luminometer (Promega Italia s.r.l., Milan, Italy). […] At 18 h post stimulations, cellular lysates were assayed for luciferase and Renilla activities using the Dual-Luciferase Reporter assay system (E1980, Promega). Luminescence was measured using Glomax 20/20 luminometer (Promega). Luciferase activities were normalized with Renilla activities.

[4] = tested on: animal models of non-obstructive cholestasis; design: method as in PMID 26177448; settings: cited from earlier work
GPBAR1 = tested on: GPBAR1; design: method as in PMID 25247751; settings: cited from earlier work
FXR [5] = target: T3, FXR; design: method as in PMID 25247751; settings: any concentration tested; cited from earlier work
[6] = tested on: rodent models of portal hypertension; design: method as in PMID 26539823; settings: cited from earlier work
PBC patients = tested on: PBC patients; design: method as in PMID 25500425; settings: cited from earlier work
[7] = tested on: FXR target genes BSEP and OSTα in HepG2 cells; assay: Real-time PCR of FXR target genes BSEP and OSTα in HepG2 cells; format: cell-based, human; settings: 10 μM, relative to not treated cells
Procedure: as §1, §2

CCC1C(O)C2C3CCC(C(C)CCO)C3(C)CCC2C2(C)CCC(O)CC12 (stereo not drawn) [compound 7]
Recruitment of SRC-1 co-activator to FXR [1]: completely unable to recruit SRC-1
Pro-glucagon gene expression [2]: increased pro-glucagon gene expression
GPBAR1 potency compared with TLCA (2) (human GPBAR1; HEK-293T cells transfected with GPBAR1, 10 μM): potency similar to that of TLCA
GPBAR1 transactivation (cAMP-luciferase reporter gene) (human GPBAR1; HEK-293T cells transfected with GPBAR1, compounds at 10 μM): inducers of cAMP-luciferase reporter gene
EC50 (human GPBAR1): 910 nM

CCC1C(O)C2C3CCC(C(C)CCO)C3(C)CCC2C2(C)CCC(O)CC12 (stereo not drawn) [compound 14]
EC50 (human GPBAR1): 1000 nM and 1020 nM
EC50 (FXR [3]): 5300 nM

CC[C@@H]1[C@@H](O)C2C3CC[C@H]([C@H](C)CCO)[C@@]3(C)CCC2[C@@]2(C)CC[C@@H](O)C[C@@H]12 (stereo partly drawn) [compound 9]
Recruitment of SRC-1 co-activator to FXR [1]: completely unable to recruit SRC-1

CC[C@H]1[C@@H](O)[C@@H]2[C@H](CC[C@]3(C)[C@@H]([C@H](C)CCO)CC[C@@H]23)[C@@]2(C)CC[C@@H](O)C[C@@H]12 [compound 5]
Liver damage and itching [4]: attenuates liver damage in animal models of non-obstructive cholestasis without inducing itching

C/C=C1/[C@H](O)C2C3CC[C@H]([C@H](C)CCO)[C@@]3(C)CCC2[C@@]2(C)CC[C@@H](O)C[C@@H]12 (stereo partly drawn) [compound 10]
Recruitment of SRC-1 co-activator to FXR [1]: completely unable to recruit SRC-1

CC[C@@H]1[C@H](O)[C@@H]2[C@H](CC[C@]3(C)[C@@H]([C@H](C)CCCO)CC[C@@H]23)[C@@]2(C)CC[C@@H](O)C[C@@H]12 [compound 6, EUDCOH]
EC50 (GPBAR1): 1030 nM
FXR transactivation (FXR [5]): failing in transactivating FXR at any concentration tested
Portal pressure [6]: exerts portal pressure-lowering effects

CC[C@H]1[C@@H](O)[C@@H]2[C@H](CC[C@]3(C)[C@@H]([C@H](C)CCC(=O)O)CC[C@@H]23)[C@@]2(C)CC[C@@H](O)C[C@@H]12 [6-ECDCA/OCA, 6-ECDCA]
Patients who experienced the symptoms (pruritus) (PBC patients): approx. 80%
PBC patients who halted the treatment due to the severity of itching (PBC patients; one trial): up to 40%

CCC1C(O)C2C3CCC(C(C)CCCCCOS(=O)(=O)O)C3(C)CCC2C2(C)CCC(O)CC12 (stereo not drawn) [compound 19]
Recruitment of SRC-1 co-activator to FXR [1]: at least comparable, if not better, to that measured for 3
Pro-glucagon gene expression [2]: increased pro-glucagon gene expression
EC50 (human GPBAR1): 950 nM
BSEP mRNA upregulation [7]: 2 fold
OSTα mRNA expression [7]: robust induction of OSTα mRNA
EC50 (FXR [3]): 1700 nM
FXR transactivation (luciferase reporter) (FXR [3]; compounds at 10 μM): the most potent FXR agonist generated in this study

CCC1C(O)C2C3CCC(C(C)CC(=O)O)C3(C)CCC2C2(C)CCCCC12 (stereo not drawn) [compound 13]
EC50 (human GPBAR1): 4300 nM
EC50 (FXR [3]): 2300 nM and 2320 nM
